Values after ≈ are worked out from the molar mass of the structure shown.
How the values were obtained:
JNK2 [1] = biological target: T1, JNK2 (Homo sapiens, UniProt P45984); assay: JNK2 kinase (intrinsic ATPase, Kinase-Glo) assay; type: biochemical; conditions: Table 3a; read-out: Kd JNK2
JNK3 [2] = biological target: T2, JNK3 (Homo sapiens, UniProt P53779); assay: JNK3 kinase (intrinsic ATPase, Kinase-Glo) assay; type: biochemical; conditions: Table 3a; read-out: Kd JNK3
CLK2 = biological target: T3, CLK2 (Homo sapiens, UniProt P49760); assay: ThermoFisher SelectScreen, CLK2; type: binding
T3 construct: purchased ThermoFisher (SelectScreen)

CSNK1A1 = biological target: T4, CSNK1A1 (Homo sapiens, UniProt P48729); assay: ThermoFisher SelectScreen, CSNK1A1; type: binding; conditions: Table 4
T4 construct: purchased ThermoFisher (SelectScreen)
Description: (§1) To mitigate violation of the linear initial velocity principle, which is a problem in end-point assays when doing dose-responses, the enzyme concentration was carefully optimized, in a total assay volume of 25 μL. The assay was performed using 10 μM ATP, 0.02% Tween-20, kinase buffer from Cell Signaling (#9802) in white 384-well plates. The kinase reaction was done for 30 or 60 min at 30° C., and detection of leftover ATP was measured according to Promega's protocol. […] Fractional activities were obtained from normalized data. Non-linear regression (GraphPad Prism7) and a modified Morrison equation for tight binding was used to determine apparent Ki values for inhibitors, assuming no particular mode of inhibition. An orthogonal binding assay (LanthaScreen) was outsourced to ThermoFisher Scientific's SelectScreen Services to determine IC50 values.
(§2) One of the earliest compounds to be synthesized with favorable enzymatic activity towards JNK1 and JNK3 was CDD-2346. A KINOMEscan was performed for CDD-2346 to establish whether the selectivity of this chemical scaffold was suitable or required optimization. […] To confirm that the activity against each kinase was a true result and not a false positive, CDD-2346 was evaluated in kinase assays using ThermoFisher SelectScreen platform. The results from these assays are provided herein (Table 4). The important innovative steps described are the optimization of selectivity a) for JNK isoforms; b) for kinases considered “in-pathway”; and c) to avoid kinases considered “out-of-pathway”.

CSNK1E = biological target: T5, CSNK1E (Homo sapiens, UniProt P49674); assay: ThermoFisher SelectScreen, CSNK1E; type: binding
T5 construct: purchased ThermoFisher (SelectScreen)

CSNK1G1 = biological target: T6, CSNK1G1 (Homo sapiens, UniProt Q9HCP0); assay: ThermoFisher SelectScreen, CSNK1G1; type: binding
T6 construct: purchased ThermoFisher (SelectScreen)
Description: as §1, §2
No activity of CDD-2728 was detected for Atypical, Mutant, or Lipid kinases. To confirm CDD-2728 inhibition results in the KINOMEscan analysis, individual binding assays were performed on the kinases to which CDD-2728 bound using ThermoFisher SelectScreen.

DYRK2 = biological target: T7, DYRK2 (Homo sapiens, UniProt Q92630); assay: ThermoFisher SelectScreen, DYRK2; type: binding; conditions: Table 4
T7 construct: purchased ThermoFisher (SelectScreen)
T7 sequence (Q92630 1-601): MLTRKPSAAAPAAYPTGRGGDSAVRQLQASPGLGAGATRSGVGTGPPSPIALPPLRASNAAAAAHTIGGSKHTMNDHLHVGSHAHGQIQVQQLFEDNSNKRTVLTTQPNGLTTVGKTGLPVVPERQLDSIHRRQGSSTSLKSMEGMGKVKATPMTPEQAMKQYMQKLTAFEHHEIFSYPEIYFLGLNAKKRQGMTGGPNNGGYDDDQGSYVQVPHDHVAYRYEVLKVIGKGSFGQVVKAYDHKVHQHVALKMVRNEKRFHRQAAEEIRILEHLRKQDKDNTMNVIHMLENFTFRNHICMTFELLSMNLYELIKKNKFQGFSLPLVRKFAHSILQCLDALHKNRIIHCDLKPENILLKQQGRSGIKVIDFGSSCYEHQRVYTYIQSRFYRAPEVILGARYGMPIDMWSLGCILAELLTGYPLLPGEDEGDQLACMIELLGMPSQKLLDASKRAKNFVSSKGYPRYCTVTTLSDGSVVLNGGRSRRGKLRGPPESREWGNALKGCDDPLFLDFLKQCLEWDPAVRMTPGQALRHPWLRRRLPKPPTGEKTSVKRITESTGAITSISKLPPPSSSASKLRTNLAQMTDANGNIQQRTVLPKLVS
Description: as §1, §2

MEK5 = biological target: T8, MEK5 (Homo sapiens, UniProt Q13163); assay: ThermoFisher SelectScreen, MEK5; type: binding; conditions: Table 4
T8 construct: purchased ThermoFisher (SelectScreen, outsourced service)
T8 sequence (Q13163 1-448): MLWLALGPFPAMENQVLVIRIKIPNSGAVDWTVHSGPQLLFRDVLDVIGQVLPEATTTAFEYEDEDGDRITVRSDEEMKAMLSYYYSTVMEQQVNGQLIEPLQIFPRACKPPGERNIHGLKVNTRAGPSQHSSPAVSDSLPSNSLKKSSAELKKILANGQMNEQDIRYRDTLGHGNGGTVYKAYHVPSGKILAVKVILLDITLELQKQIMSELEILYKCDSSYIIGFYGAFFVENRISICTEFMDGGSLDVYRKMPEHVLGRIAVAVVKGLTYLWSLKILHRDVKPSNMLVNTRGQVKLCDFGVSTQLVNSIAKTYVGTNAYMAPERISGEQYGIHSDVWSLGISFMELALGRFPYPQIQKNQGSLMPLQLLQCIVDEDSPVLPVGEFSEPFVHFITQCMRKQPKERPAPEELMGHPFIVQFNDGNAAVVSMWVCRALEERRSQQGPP
Description: as §1, §2

MYLK = biological target: T9, MYLK (Homo sapiens, UniProt Q15746); assay: ThermoFisher SelectScreen, MYLK; type: binding; conditions: Table 4
T9 construct: purchased ThermoFisher (SelectScreen, outsourced service)
Description: as §1, §2

hVPS34 = biological target: T10, hVPS34 (Homo sapiens, UniProt Q8NEB9); assay: ThermoFisher SelectScreen, hVPS34; type: binding; conditions: Table 4
T10 construct: purchased ThermoFisher (SelectScreen, outsourced service)
Description: as §1, §2

JNK3 [3] = biological target: T2, JNK3; assay: ThermoFisher SelectScreen, JNK3; type: binding
JNK1 = JNK1 (Homo sapiens, UniProt P45983); assay: Promega NanoBRET intracellular target engagement (tracer K10 displacement), JNK1; type: cell-based
JNK2 [4] = biological target: T1, JNK2; assay: Promega NanoBRET intracellular target engagement (tracer K10 displacement), JNK2; type: cell-based
JNK3 [5] = biological target: T2, JNK3; assay: Promega NanoBRET intracellular target engagement (tracer K10 displacement), JNK3; type: cell-based
[6] = In vitro metabolism in mouse liver microsomes; conditions: mouse, microsomes
Description: (§3) The target product profile seeks to deliver JNK inhibitor as a once daily oral administration. To prioritize compounds for further development, in vitro metabolism of several CDD JNK inhibitors were determined to approximate the plasma half-life and the rate of metabolism of the compounds in vivo.

[7] = In vitro metabolism in human liver microsomes; conditions: human, microsomes
Description: as §3

T4 sequence (P48729 whole entry): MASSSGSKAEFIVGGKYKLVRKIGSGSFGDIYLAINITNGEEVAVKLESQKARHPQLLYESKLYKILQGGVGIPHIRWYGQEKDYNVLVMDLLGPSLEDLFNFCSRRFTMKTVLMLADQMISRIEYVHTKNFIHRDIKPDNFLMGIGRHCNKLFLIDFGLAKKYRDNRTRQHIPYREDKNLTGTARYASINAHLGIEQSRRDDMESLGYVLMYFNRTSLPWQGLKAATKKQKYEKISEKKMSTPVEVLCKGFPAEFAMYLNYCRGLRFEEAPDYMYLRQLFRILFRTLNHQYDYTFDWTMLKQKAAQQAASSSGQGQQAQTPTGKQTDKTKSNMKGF
T6 sequence (Q9HCP0 whole entry): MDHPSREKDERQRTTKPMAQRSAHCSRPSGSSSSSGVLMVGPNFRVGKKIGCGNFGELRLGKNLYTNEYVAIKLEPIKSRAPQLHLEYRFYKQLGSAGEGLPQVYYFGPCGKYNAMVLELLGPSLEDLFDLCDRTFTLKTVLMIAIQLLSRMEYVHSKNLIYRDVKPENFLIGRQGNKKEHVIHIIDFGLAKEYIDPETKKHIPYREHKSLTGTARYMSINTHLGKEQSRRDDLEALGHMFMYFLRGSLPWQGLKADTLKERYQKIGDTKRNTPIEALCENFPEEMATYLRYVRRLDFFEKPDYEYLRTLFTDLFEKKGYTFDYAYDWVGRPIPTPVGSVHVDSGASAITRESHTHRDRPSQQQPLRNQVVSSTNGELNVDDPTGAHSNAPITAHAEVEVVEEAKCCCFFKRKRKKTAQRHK
T3 sequence (P49760 whole entry): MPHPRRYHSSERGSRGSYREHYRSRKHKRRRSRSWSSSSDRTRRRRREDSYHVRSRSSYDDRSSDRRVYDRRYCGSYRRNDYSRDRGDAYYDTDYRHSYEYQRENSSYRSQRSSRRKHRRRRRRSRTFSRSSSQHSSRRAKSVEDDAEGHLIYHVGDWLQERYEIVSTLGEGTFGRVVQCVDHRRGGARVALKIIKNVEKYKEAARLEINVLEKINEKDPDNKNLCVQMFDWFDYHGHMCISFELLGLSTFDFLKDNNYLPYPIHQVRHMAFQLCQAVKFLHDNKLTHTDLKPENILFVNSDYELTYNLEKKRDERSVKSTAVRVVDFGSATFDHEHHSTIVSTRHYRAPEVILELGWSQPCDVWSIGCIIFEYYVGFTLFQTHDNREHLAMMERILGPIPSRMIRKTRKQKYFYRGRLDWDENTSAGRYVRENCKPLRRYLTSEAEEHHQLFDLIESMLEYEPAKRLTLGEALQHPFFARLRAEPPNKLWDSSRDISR
T9 sequence (Q15746 whole entry): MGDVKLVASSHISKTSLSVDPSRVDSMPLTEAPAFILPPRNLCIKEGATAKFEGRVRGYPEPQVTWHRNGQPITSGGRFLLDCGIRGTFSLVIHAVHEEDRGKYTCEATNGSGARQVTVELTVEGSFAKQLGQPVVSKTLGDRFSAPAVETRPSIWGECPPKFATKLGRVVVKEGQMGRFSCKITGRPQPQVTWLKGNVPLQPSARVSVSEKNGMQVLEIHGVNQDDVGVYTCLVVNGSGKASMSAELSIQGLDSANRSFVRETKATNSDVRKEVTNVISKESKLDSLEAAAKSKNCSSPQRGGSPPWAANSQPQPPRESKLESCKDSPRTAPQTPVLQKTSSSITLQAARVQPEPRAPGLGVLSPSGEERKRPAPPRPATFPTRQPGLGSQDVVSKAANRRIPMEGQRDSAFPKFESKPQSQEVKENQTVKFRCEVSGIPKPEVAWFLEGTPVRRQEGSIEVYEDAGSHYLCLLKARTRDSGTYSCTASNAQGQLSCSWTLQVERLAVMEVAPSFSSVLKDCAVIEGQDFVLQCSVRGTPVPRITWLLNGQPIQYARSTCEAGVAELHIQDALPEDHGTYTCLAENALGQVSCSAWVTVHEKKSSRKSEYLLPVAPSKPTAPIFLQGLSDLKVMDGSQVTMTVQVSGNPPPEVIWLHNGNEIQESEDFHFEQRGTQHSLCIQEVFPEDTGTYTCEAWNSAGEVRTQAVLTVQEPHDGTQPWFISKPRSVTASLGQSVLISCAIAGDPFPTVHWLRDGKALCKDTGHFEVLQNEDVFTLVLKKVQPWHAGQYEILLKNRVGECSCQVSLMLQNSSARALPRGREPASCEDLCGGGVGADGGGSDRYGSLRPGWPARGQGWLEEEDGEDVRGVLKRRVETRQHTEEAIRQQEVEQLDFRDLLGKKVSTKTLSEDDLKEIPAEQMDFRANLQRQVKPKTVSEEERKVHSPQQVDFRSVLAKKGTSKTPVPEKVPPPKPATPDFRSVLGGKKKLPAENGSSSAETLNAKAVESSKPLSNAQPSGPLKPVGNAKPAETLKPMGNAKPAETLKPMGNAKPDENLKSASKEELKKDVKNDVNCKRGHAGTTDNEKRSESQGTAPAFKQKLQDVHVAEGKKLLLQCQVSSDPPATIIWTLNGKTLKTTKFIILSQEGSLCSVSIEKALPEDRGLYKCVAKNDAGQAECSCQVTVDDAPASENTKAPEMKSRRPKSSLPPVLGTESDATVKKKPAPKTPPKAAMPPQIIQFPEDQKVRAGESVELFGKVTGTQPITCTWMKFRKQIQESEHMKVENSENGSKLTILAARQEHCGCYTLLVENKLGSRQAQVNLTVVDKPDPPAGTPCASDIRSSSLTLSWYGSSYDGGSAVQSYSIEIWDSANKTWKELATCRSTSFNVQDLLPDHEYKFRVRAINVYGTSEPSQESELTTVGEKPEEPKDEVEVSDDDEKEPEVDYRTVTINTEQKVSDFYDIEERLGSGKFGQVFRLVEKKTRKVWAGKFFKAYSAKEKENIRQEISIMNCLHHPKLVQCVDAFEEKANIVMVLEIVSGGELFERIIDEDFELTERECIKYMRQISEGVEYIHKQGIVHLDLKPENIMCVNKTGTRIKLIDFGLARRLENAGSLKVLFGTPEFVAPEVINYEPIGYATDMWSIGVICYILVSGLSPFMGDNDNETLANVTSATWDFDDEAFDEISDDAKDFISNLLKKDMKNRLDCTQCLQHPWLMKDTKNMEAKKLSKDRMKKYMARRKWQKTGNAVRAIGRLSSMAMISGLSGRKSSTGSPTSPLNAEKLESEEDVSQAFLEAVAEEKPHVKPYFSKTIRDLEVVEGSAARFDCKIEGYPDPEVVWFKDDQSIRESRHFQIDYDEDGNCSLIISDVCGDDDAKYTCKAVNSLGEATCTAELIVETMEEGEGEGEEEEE
JNK1, sequence (P45983 whole entry): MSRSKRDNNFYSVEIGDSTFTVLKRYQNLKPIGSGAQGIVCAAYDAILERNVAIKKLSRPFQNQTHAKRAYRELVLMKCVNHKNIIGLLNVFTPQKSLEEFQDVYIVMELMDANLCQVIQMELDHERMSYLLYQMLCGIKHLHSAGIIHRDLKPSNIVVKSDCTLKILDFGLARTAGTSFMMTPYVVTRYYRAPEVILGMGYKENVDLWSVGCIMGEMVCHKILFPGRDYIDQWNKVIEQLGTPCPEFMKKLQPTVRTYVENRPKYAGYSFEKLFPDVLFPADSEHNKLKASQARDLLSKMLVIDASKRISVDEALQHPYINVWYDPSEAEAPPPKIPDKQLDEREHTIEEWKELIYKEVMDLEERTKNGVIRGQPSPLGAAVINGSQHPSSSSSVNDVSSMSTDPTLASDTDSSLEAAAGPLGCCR
T2 sequence (P53779 whole entry): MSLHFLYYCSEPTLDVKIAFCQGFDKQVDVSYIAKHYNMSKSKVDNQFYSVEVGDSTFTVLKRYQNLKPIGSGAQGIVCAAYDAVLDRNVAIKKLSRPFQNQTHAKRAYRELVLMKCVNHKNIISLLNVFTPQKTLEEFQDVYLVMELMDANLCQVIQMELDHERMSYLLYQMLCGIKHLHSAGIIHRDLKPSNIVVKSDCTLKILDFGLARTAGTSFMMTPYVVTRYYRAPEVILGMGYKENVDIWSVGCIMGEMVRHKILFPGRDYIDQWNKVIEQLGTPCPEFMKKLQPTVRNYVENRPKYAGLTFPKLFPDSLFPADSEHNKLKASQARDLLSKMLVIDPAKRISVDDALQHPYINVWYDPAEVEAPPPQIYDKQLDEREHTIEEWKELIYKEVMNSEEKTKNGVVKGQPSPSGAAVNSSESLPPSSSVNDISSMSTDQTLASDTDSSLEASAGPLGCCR
T10 sequence (Q8NEB9 whole entry): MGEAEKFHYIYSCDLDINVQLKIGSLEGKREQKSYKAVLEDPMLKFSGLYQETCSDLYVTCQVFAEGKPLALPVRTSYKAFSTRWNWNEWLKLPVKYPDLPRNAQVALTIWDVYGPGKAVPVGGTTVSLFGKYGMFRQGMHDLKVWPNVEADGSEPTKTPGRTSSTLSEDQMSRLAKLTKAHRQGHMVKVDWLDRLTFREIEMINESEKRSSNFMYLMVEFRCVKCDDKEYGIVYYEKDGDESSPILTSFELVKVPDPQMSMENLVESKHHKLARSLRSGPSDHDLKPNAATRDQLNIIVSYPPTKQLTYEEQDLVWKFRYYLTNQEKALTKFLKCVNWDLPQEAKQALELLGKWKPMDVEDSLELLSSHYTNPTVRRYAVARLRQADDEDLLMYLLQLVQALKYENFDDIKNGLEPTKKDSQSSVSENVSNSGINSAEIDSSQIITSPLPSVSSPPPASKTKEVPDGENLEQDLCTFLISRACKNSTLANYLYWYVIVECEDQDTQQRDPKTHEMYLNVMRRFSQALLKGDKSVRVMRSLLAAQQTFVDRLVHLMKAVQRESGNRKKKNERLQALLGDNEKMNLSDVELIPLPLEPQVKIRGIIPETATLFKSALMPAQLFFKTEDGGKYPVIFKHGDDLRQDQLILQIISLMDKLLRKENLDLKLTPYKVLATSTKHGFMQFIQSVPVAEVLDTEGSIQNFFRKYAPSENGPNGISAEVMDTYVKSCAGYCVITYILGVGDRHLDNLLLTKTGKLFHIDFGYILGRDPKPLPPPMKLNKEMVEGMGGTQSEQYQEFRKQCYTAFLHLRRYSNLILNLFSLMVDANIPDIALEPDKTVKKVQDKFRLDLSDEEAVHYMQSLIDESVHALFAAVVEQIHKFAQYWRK

| Kd (JNK2 [1]) | Kd (JNK3 [2]) | Kd (CLK2) | Kd (CSNK1A1) | Kd (CSNK1E) | Kd (CSNK1G1; Table 4) | Kd (DYRK2) | Kd (MEK5) | Kd (MYLK) | Kd (hVPS34) | Kd (JNK3 [3]) | IC50 (JNK1) | inhibition of binding to JNK1, JNK2, and JNK3 relative to staurosporine (JNK1; NanoBRET) | IC50 (JNK2 [4]) | IC50 (JNK3 [5]) | half-life [6] | half-life [7] | solubility (Solubility) | Kd (CSNK1G1; Table 5) | improvement of NanoBRET IC50 for JNK1 (CDD-2346/CDD-2728) (JNK1; relative to CDD-2346) | SMILES |
| --- | --- | --- | --- | --- | --- | --- | --- | --- | --- | --- | --- | --- | --- | --- | --- | --- | --- | --- | --- | --- |
| 0.94 ± 0.22 nM | 0.65 ± 0.16 nM | 34 nM | 85 nM | 48 nM | 133 nM | 78 nM | 579 nM | 442 nM | 109 nM | 0.65 nM | 5100 nM | superior to staurosporine | 1700 nM | 3000 nM | 1.15 h | 3.14 h | 167 µM (≈ 66.1 µg/mL) |  |  | CNCc1ccc(NC(=O)c2ccn3ncc(-c4cnc5[nH]ccc5c4)c3c2)cc1 [CDD-2346, N-(4-((methylamino)methyl)phenyl)-3-(1H-pyrrolo[2,3-b]pyridin-5-yl)pyrazolo[1,5-a]pyridine-5-carboxamide] |
| 0.74 ± 0.09 nM | 0.45 ± 0.04 nM | 17 nM | 70.5 nM | 29 nM | 52 nM | 48 nM | 547 nM | 501 nM | 255 nM | 0.45 nM |  |  |  |  | 0.277 h | 0.945 h | 176 µM (≈ 72.2 µg/mL) |  |  | CN(C)Cc1ccc(NC(=O)c2ccn3ncc(-c4cnc5[nH]ccc5c4)c3c2)cc1 [CDD-2482, N-(4-((dimethylamino)methyl)phenyl)-3-(1H-pyrrolo[2,3-b]pyridin-5-yl)pyrazolo[1,5-a]pyridine-5-carboxamide] |
| 0.67 ± 0.09 nM | 0.86 ± 0.05 nM | 130 nM | 41300 nM | 235 nM | 14400 nM | 288 nM | 4040 nM | 942 nM | 1140 nM | 4.34 nM | 770 nM |  | 442 nM | 468 nM | 0.18 h | 0.565 h | 0.3 µM (≈ 0.111 µg/mL) |  |  | O=C(Nc1ccc(F)cc1)c1ccn2ncc(-c3cnc4[nH]ccc4c3)c2c1 [CDD-2486, N-(4-fluorophenyl)-3-(1H-pyrrolo[2,3-b]pyridin-5-yl)pyrazolo[1,5-a]pyridine-5-carboxamide] |
|  |  | 240 nM |  | 1070 nM |  |  |  |  |  |  | 599 nM |  | 570 nM | 534 nM | 1.42 h | 2.89 h | 19.4 µM (≈ 8.86 µg/mL) | 4400 nM | 8.5 fold | CN(C)C(=O)c1cc(NC(=O)c2cc3c(-c4cnc5[nH]ccc5c4)cccc3s2)ccc1O [CDD-2728, N-(3-(dimethylcarbamoyl)-4-hydroxyphenyl)-4-(1H-pyrrolo[2,3-b]pyridin-5-yl)benzo[b]thiophene-2-carboxamide] |

Source: patent US20260294922A1, “Inhibitors of JUN N-Terminal Kinases (JNK1, JNK2, and/or JNK3) and Mitogen-Activated Protein Kinases (MAPK8, MAPK9, and/or MAPK10) and Methods of Using Same” (Baylor College of Medicine, priority 2023, published 2026)
